Assay: equilibrium dialysis test (slow release of minoxidil ion through a dialysis membrane)
Assay type: physicochemical
Conditions: 10 ml solution containing 0.45 mmoles, pH 4.4, equilibrated through a dialytic barrier with 130 ml of water at pH 4.4
Description: A direct experimental evidence of the slow-release mechanism, characterizing the minoxidil-polyanion salts, is obtained by dialysis equilibrium tests, as shown in the enclosed Figure. […] If the dialysis solution is substituted, the equilibrium is recovered after dissociation of a further amount of salt. This process mimicks "in vitro" the drug's slow release action at the skin level, characterized by a constant and uniform absorption of the active principle, whose availability in time is provided by the continuous dissociation of the salt.
When the equilibrium conditions are reached at the points marked by the arrows, the equilibrium solution is removed, substituting it with 130 ml of water, till reestablishment of the new equilibrium conditions.

- minoxidil found outside the dialysis membrane at equilibrium: about 90%
Structure (SMILES): Cl.Nc1cc(N2CCCCC2)nc(N)[n+]1[O-] [minoxidil chloride]

Reference: patent EP0211268B1, “Slow-release topical formulations” (Zappia, Vincenzo, priority 1985, dated 1987)
